Assay results published in ChEMBL document CHEMBL4359894, “Novel class of 7-Oxabicyclo[2.2.1]heptene sulfonamides with long alkyl chains displaying improved estrogen receptor α degradation activity” (Eur J Med Chem, 2019).
Calls of active or inactive are those of the source. No cut-off for these calls is given here.

Tests used:
MCF7 = experiment: Antiproliferative activity against human MCF7 cell incubated for 72 hrs by MTT assay; format: functional, cell-based; details: MCF7, 72 h
[1] = molecular target: T1, Estrogen receptor (Homo sapiens) (UniProt P03372); experiment: Binding affinity to ERalpha (unknown origin) by competitive fluorometric receptor binding assay relative to estradiol
T1 sequence (whole entry): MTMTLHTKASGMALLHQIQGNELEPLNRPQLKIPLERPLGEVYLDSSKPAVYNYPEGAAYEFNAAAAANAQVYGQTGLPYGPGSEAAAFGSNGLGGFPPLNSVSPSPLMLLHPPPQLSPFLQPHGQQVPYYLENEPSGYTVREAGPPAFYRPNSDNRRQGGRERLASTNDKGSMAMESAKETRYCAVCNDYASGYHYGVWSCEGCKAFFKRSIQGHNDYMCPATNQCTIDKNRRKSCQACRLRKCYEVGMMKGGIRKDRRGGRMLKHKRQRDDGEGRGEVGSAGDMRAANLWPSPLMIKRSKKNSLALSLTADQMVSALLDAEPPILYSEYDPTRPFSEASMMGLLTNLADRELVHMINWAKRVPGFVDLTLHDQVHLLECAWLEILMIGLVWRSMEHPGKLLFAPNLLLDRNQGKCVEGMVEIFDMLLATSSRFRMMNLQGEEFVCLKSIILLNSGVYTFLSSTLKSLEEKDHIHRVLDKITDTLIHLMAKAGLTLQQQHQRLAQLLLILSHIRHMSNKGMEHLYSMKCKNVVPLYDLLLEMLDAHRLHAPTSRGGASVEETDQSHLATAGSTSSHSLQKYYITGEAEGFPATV

[2] = Therapeutic index, ratio of IC50 for cytotoxicity against human MCF10A cells to IC50 for antiproliferative activity against human MCF7 cells; format: toxicity, cell-based; details: read-out: Ratio IC50
[3] = molecular target: Estrogen receptor beta (Homo sapiens) (UniProt Q92731); experiment: Binding affinity to ERbeta (unknown origin) by competitive fluorometric receptor binding assay relative to estradiol
Sequence of Estrogen receptor beta (Homo sapiens) (Q92731 whole entry): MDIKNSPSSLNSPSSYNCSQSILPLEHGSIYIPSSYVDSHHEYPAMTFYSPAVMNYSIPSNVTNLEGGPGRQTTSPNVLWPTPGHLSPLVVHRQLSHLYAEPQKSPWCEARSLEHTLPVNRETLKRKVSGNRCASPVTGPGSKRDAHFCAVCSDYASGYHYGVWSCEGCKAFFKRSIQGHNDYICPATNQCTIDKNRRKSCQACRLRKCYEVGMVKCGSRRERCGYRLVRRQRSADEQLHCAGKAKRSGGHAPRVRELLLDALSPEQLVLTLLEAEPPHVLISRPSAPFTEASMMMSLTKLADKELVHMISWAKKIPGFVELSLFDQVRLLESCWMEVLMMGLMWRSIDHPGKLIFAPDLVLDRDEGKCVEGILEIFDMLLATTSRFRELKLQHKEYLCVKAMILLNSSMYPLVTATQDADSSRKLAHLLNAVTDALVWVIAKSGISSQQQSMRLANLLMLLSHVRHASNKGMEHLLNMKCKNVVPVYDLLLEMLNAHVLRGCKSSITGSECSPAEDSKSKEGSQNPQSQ

MCF-10A = experiment: Cytotoxicity against human MCF10A cell incubated for 72 hrs by MTT assay; format: cell-based
[4] = molecular target: T1, Estrogen receptor (Homo sapiens); experiment: Induction of ERalpha degradation in human MCF7 cells assessed as decrease in ERalpha protein expression at 5 uM incubated for 24 hrs by Western blot analysis relative to control; format: cell-based; parameters: scale not given: the % may be the effect or the level left

Compound	IC50 (MCF7) [µM]	relative binding affinity (RBA) [1]	selectivity ratio [2]	relative binding affinity (RBA) [3]	IC50 (MCF-10A) [µM]	Activity [4]
CCCCCCCCOc1ccc(C2=C(c3ccc(O)cc3)[C@H]3O[C@@H]2C[C@@H]3S(=O)(=O)N(CC(F)(F)F)c2ccc(Cl)cc2)cc1	2.72	0.59	30.9	0.03	84.2	
CCCCCCCCOc1ccc(C2=C(c3ccc(O)cc3)[C@H]3C[C@H](S(=O)(=O)N(CC(F)(F)F)c4ccc(Cl)cc4)[C@@H]2O3)cc1 (relative stereo)	5.22	2.36	> 19.1	0.04	> 100	
CCCCCCCCCCOc1ccc(C2=C(c3ccc(O)cc3)[C@H]3C[C@H](S(=O)(=O)N(CC(F)(F)F)c4ccc(Cl)cc4)[C@@H]2O3)cc1 (relative stereo)	51.2	0.25	> 1.9	0.11	> 100	
CCCCCCCCCCCCOc1ccc(C2=C(c3ccc(O)cc3)[C@H]3O[C@@H]2C[C@@H]3S(=O)(=O)N(CC(F)(F)F)c2ccc(OC)cc2)cc1 (relative stereo)	86.7	0.32	> 1.1	0.01	> 100	
CCCCCCOc1ccc(N(C)S(=O)(=O)[C@H]2C[C@H]3O[C@@H]2C(c2ccc(O)cc2)=C3c2ccc(O)cc2)cc1 (relative stereo)	4.14	2.02	7.3	0.12	30.4	Active
CCCCCCOc1ccc(C2=C(c3ccc(O)cc3)[C@H]3O[C@@H]2C[C@@H]3S(=O)(=O)N(CC(F)(F)F)c2ccc(Cl)cc2)cc1 (relative stereo)	1.38	3.49	28.7	0.02	39.7	
CCCCCCCCOc1ccc(C2=C(c3ccc(O)cc3)[C@H]3C[C@H](S(=O)(=O)N(CC)c4ccccc4)[C@@H]2O3)cc1 (racemic)	5.89	0.55	10	0.02	59.4	
CCCCCCCCCCCCOc1ccc(C2=C(c3ccc(O)cc3)[C@H]3C[C@H](S(=O)(=O)N(CC(F)(F)F)c4ccc(OC)cc4)[C@@H]2O3)cc1 (relative stereo)	> 100	0.06		0.15	> 100	
CCCCOc1ccc(C2=C(c3ccc(O)cc3)[C@H]3C[C@H](S(=O)(=O)N(CC(F)(F)F)c4ccc(OC)cc4)[C@@H]2O3)cc1 (relative stereo)	3.02	2.11	23.1	0.85	69.7	100%
CCCCCOc1ccc(C2=C(c3ccc(O)cc3)[C@H]3C[C@H](S(=O)(=O)N(CC(F)(F)F)c4ccc(OC)cc4)[C@@H]2O3)cc1 (relative stereo)	12.7	4.29	7.6	0.04	97.3	100%
CCCCCCOc1ccc(C2=C(c3ccc(O)cc3)[C@H]3C[C@H](S(=O)(=O)N(CC(F)(F)F)c4ccc(Cl)cc4)[C@@H]2O3)cc1 (relative stereo)	2.89	4.14	19.8	0.04	57.5	
CCCCCCOc1ccc(C2=C(c3ccc(O)cc3)[C@H]3O[C@@H]2C[C@@H]3S(=O)(=O)N(CC)c2ccccc2)cc1 (relative stereo)	0.97	2.51	43.9	0.53	42.6	
CCCCCOc1ccc(C2=C(c3ccc(O)cc3)[C@H]3O[C@@H]2C[C@@H]3S(=O)(=O)N(CC(F)(F)F)c2ccc(OC)cc2)cc1 (relative stereo)	1.78	1.53	> 56.1	0.24	> 100	100%
CCCCOc1ccc(C2=C(c3ccc(O)cc3)[C@H]3O[C@@H]2C[C@@H]3S(=O)(=O)N(CC)c2ccccc2)cc1 (relative stereo)	1.82	3.12	18	0.04	32.8	
CCCCOc1ccc(C2=C(c3ccc(O)cc3)[C@H]3O[C@@H]2C[C@@H]3S(=O)(=O)N(CC(F)(F)F)c2ccc(OC)cc2)cc1 (relative stereo)	2.43	1.81	32.2	0.27	78.3	100%
CCCCCCOc1ccc(C2=C(c3ccc(O)cc3)[C@H]3O[C@@H]2C[C@@H]3S(=O)(=O)N(CC(F)(F)F)c2ccc(OC)cc2)cc1	0.84	4.43	50.4	0.08	42.4	100%
CCCCCCCCCCOc1ccc(C2=C(c3ccc(O)cc3)[C@H]3O[C@@H]2C[C@@H]3S(=O)(=O)N(CC(F)(F)F)c2ccc(OC)cc2)cc1 (relative stereo)	25.3	1.35	> 3.9	0.02	> 100	
CCCCCCOc1ccc(C2=C(c3ccc(O)cc3)[C@H]3C[C@H](S(=O)(=O)N(CC)c4ccccc4)[C@@H]2O3)cc1 (relative stereo)	3.45	2.99	> 28.9	0.35	> 100	
CCCCOc1ccc(C2=C(c3ccc(O)cc3)[C@H]3C[C@H](S(=O)(=O)N(CC)c4ccccc4)[C@@H]2O3)cc1 (relative stereo)	3.29	3.26	17.9	0.05	59.2	
CCCCOc1ccc(C2=C(c3ccc(O)cc3)[C@H]3C[C@H](S(=O)(=O)N(CC(F)(F)F)c4ccc(Cl)cc4)[C@@H]2O3)cc1 (relative stereo)	2.95	4.25	15.5	0.05	45.8	
CCCCOc1ccc(C2=C(c3ccc(O)cc3)[C@H]3O[C@@H]2C[C@@H]3S(=O)(=O)N(CC(F)(F)F)c2ccc(Cl)cc2)cc1 (relative stereo)	3.22	1.13	14.7	0.16	47.4	
CCCCCCCCOc1ccc(C2=C(c3ccc(O)cc3)[C@H]3C[C@H](S(=O)(=O)N(CC(F)(F)F)c4ccc(OC)cc4)[C@@H]2O3)cc1 (relative stereo)	2.21	1.08	> 45.2	0.32	> 100	
CCCCCCOc1ccc(C2=C(c3ccc(O)cc3)[C@H]3C[C@H](S(=O)(=O)N(CC(F)(F)F)c4ccc(OC)cc4)[C@@H]2O3)cc1 (relative stereo)	1.15	8.37	33.9	0.01	39	100%
CCCCCCCCCCOc1ccc(C2=C(c3ccc(O)cc3)[C@H]3C[C@H](S(=O)(=O)N(CC(F)(F)F)c4ccc(OC)cc4)[C@@H]2O3)cc1 (relative stereo)	31.8	0.85	> 3.1	0.6	> 100	
CCCCCCCCCCOc1ccc(C2=C(c3ccc(O)cc3)[C@H]3O[C@@H]2C[C@@H]3S(=O)(=O)N(CC(F)(F)F)c2ccc(Cl)cc2)cc1 (relative stereo)	21.2	0.57	> 4.7	0.01	> 100	
CCCCCCCCOc1ccc(C2=C(c3ccc(O)cc3)[C@H]3O[C@@H]2C[C@@H]3S(=O)(=O)N(CC(F)(F)F)c2ccc(OC)cc2)cc1 (relative stereo)	2.39	1.59	17.9	0.15	42.8	
CCCCCCCCOc1ccc(C2=C(c3ccc(O)cc3)[C@H]3O[C@@H]2C[C@@H]3S(=O)(=O)N(CC)c2ccccc2)cc1 (relative stereo)	1.16	1.03	29.8	0.05	34.6	
